This note sets out measurements from ChEMBL document CHEMBL5393447, “Selective foxo inhibitors for treatment of diabetes and other disorders related to impaired pancreatic function” (2022).

The target in one data set is Forkhead box protein O1 (Homo sapiens) (UniProt Q12778). The settings on record: HEK293, dose 1-50000 nM.
Forkhead box protein O1 (Homo sapiens), sequence (Q12778 whole entry): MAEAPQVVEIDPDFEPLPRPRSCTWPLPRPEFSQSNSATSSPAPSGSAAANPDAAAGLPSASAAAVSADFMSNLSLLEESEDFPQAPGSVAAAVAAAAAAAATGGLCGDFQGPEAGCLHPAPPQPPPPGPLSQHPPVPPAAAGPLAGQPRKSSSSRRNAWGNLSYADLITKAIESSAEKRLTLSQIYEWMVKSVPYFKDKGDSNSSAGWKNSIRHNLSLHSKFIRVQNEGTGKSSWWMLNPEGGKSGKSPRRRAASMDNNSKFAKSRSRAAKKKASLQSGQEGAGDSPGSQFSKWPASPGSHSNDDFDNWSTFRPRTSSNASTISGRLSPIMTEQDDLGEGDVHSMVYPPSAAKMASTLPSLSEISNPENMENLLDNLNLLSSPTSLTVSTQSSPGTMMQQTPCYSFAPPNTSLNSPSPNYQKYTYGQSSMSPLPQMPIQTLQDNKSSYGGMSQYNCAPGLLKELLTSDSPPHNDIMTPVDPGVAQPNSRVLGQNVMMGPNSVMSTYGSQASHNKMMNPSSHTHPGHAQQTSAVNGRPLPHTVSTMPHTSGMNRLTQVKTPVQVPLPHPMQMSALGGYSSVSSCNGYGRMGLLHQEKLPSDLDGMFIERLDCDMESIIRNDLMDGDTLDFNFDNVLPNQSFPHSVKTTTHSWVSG
Description: Inhibition of human FOXO1 expressed in HEK293 cells at 1 nM to 50 uM by Dual-Glo luciferase assay relative to control
Broadly, the inhibition is the change of the read-out against control, counted positive when it falls. Read a high inhibition as strong suppression. As to `COc1ccc(C(=O)Nc2cc(-c3nc4cc(OC(F)(F)F)ccc4[nH]3)[nH]n2)cc1Cl`, the inhibition was > 40%.

Take `CC(=O)Nc1cc(-c2nc3ccccc3[nH]2)n[nH]1`: the inhibition is < 40%.

On to `CN1CCN(c2ccc(C(=O)Nc3cc(-c4nc5ccccc5[nH]4)n[nH]3)cc2)CC1`, for which the inhibition was > 40%.

On to `CN1CCC(c2ccc(C(=O)Nc3cc(-c4nc5ccccc5[nH]4)n[nH]3)cc2)CC1`, for which the inhibition is > 40%.

Consider `COc1ccc(C(=O)Nc2cc(-c3nc4cc(C(F)(F)F)ccc4[nH]3)[nH]n2)cc1Cl`, for which the inhibition is > 40%.

Consider `COc1ccc(C(=O)Nc2cc(-c3nc4c(C(F)(F)F)cccc4[nH]3)[nH]n2)cc1Cl`, for which the inhibition was > 40%.

Take `CC(=O)N1CCN(c2ccc(C(=O)Nc3cc(-c4nc5ccccc5[nH]4)n[nH]3)cc2)CC1`: the inhibition was > 40%.

Turning to `Nc1cc(-c2nc3ccccc3[nH]2)n[nH]1`, the inhibition is < 40%.

Tested on in a further data set: not listed separately
The data set is described as follows: Metabolic stability in human hepatocytes assessed as compound remaining at 0.3 uM measured upto 90 mins by LC-MS/MS analysis. It counts as ADME, cell-based, Hepatocyte. The settings on record: read-out: Stability.
Consider `O=C(Nc1cc(-c2nc3ccccc3[nH]2)n[nH]1)c1ccc(N2CCNCC2)cc1`, for which the remaining at 1.5 h, 0.3 µM was 110%.
